# Data taken from US8318935B2, “Organic compounds 75074” (Novartis AG, priority 2007, dated 2012).
# Structures can show the parent of a compound that is named as a salt.
# Molecular target: T1, epithelial sodium channel (ENaC) (Homo sapiens, UniProt P37088+P51168+P51170)
# T1 construct: host or cells: primary Human Bronchial Epithelial cells (HBECs), air-liquid interface culture
# T1 sequence (P37088 1-669): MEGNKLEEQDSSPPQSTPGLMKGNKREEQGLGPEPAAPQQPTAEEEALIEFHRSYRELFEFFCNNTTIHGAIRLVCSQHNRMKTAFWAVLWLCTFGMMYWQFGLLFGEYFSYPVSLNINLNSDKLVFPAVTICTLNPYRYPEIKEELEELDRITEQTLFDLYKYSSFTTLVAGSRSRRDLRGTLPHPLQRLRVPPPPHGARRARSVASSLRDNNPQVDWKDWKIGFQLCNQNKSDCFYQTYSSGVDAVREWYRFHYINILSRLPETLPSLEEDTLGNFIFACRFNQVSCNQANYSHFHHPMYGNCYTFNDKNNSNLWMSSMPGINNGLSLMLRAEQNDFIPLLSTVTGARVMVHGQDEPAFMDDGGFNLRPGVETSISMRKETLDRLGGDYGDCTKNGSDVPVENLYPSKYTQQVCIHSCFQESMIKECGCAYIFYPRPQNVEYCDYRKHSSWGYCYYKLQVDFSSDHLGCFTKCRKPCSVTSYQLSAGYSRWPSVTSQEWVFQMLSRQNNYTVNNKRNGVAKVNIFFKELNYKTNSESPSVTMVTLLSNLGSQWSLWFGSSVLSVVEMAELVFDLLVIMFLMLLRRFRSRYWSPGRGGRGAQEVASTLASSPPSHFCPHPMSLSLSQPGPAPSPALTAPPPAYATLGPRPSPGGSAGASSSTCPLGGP
# T1 sequence (P51168 1-640): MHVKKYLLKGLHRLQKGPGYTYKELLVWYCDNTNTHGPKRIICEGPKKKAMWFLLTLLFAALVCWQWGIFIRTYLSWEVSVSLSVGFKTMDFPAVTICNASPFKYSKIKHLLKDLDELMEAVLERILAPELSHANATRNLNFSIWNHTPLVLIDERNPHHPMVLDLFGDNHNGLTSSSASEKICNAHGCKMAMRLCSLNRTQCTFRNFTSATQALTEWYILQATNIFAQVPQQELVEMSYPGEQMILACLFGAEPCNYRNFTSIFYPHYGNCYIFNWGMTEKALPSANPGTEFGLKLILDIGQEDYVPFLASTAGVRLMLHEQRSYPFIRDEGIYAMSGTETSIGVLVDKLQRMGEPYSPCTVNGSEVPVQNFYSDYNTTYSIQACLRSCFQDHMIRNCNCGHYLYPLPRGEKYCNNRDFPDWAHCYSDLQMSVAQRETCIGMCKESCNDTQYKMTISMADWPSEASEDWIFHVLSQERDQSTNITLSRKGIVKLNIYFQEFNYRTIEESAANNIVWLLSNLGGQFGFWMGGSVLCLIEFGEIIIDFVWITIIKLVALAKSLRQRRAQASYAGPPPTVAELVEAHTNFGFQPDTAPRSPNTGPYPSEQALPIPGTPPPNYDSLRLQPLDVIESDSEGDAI
# T1 sequence (P51170 1-649): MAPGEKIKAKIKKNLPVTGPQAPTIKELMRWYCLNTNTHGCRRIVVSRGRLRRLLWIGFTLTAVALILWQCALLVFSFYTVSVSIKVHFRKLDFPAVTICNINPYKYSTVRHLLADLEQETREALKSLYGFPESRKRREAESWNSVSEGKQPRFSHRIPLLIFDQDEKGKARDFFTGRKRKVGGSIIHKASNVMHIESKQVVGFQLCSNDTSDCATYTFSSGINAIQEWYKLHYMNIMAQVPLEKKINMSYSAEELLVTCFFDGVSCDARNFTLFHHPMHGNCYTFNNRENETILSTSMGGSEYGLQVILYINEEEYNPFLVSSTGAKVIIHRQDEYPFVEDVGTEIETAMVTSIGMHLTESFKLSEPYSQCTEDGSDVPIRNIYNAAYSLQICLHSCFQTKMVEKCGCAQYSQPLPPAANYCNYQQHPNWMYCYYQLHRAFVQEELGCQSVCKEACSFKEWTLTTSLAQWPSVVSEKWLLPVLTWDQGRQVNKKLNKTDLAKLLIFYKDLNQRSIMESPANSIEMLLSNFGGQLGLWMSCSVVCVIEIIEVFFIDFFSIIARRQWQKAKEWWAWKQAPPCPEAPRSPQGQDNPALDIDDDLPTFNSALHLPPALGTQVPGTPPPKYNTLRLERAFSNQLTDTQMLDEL
# Test: Short circuit current (ISC) measurements in human bronchial epithelial cells: inhibition of the amiloride-sensitive ISC (ENaC blockade)
# Format: cell-based
# Settings: Human Bronchial Epithelial cells (HBECs) at air-liquid interface, Ussing chamber, compound added to apical chamber
# Experimental: Human Bronchial Epithelial cells (HBECs) (Cambrex) were cultured under air-liquid interface conditions to provide a well differentiated mucociliary phenotype.
# HBECs were cultured using a modification of the method described by Gray and colleagues (Gray et al., 1996). Cells were seeded in plastic T-162 flasks and were grown in bronchial epithelial cell growth medium (BEGM; Cambrex) supplemented with bovine pituitary extract (52 μg/ml), hydrocortisone (0.5 μg/ml), human recombinant epidermal growth factor (0.5 ng/ml), epinephrine (0.5 μg/ml), transferrin (10 μg/ml), insulin (5 μg/ml), retinoic acid (0.1 μg/ml), triiodothyronine ([…]), gentamycin (50 μg/ml) and amphotericin B (50 ng/ml). Medium was changed every 48 hours until cells were 90% confluent. Cells were then passaged and seeded (8.25×10^4 cells/insert) on polycarbonate Snapwell inserts (Costar) in differentiation media containing 50% DMEM in BEGM with the same supplements as above but without triiodothyronine and a final retinoic acid concentration of 50 nM (all-trans retinoic acid). Cells were maintained submerged for the first 7 days in culture, after which time they were exposed to an apical air interface for the remainder of the culture period. At this time, media was changed to DMEM:F12 media containing 2% v/v Ultroser G for the remainder of culture. Amphotericin B was removed from all media 3 feeds prior to use in the Ussing Chambers. Cells were used between days 7 and 21 after establishment of the apical-air interface. At all stages of culture, cells were maintained at 37° C. in 5% CO2 in an air incubator.
# Short Circuit Current (ISC) Measurements
# Snapwell inserts were mounted in Vertical Diffusion Chambers (Costar) and were bathed with continuously gassed Ringer solution (5% CO2 in O2; pH 7.4) maintained at 37° C. containing (in mM): 120 NaCl, 25 NaHCO3, 3.3 KH2PO4, 0.8 K2HPO4, 1.2 CaCl2, 1.2 MgCl2, and 10 glucose. The solution osmolarity was between 280 and 300 mOsmol/kg H2O for all physiological salt solutions used. Cells were voltage clamped to 0 mV (model EVC4000; WPI). RT was measured by applying a 1- or 2-mV pulse at 30-s intervals and calculating RT by Ohm's law. Data were recorded using a PowerLab workstation (ADInstruments).
# Test compounds were prepared as a 10 mM stock solution in DMSO (95%). Serial 3-fold dilutions were freshly prepared in an appropriate vehicle (distilled H2O or Ringers solution). The initial concentration was added to the apical chamber as a 1000× concentrate in 5 μl, resulting in a final 1× concentration the 5 ml volume of the Ussing chamber. Subsequent additions of compound were added in a 3.3 μl volume of the 1000× serially diluted stock solution. At the completion of the concentration-response experiment, amiloride (10 μM) was added into the apical chamber to enable the total amiloride-sensitive current to be measured. An amiloride control IC50 was established at the start of each experiment.
# Results are expressed as the mean % inhibition of the amiloride-sensitive ISC. Concentration-response curves were plotted and IC50 values generated using GraphPad Prism 3.02. Cell inserts were typically run in duplicate and the IC50 calculated on the mean % inhibition data.
row,IC50,SMILES
1,1.5 nM,"N=C(NC(=O)c1nc(Cl)c(N)nc1N)NC1CCN(C(=O)Nc2ccc(NC(=O)N3CCC(NC(=N)NC(=O)c4nc(Cl)c(N)nc4N)CC3)cc2)CC1 [Example 2, N,N′-(1,1′-(1,4-phenylenebis(azanediyl))bis(oxomethylene)bis(piperidine-4,1-diyl))bis(azanediyl)bis(iminomethylene)bis(3,5-diamino-6-chloropyrazine-2-carboxamide)hydrobromide]"
2,10 nM,"N=C(NC(=O)c1nc(Cl)c(N)nc1N)NC1CCN(C(=O)c2ccc(C(=O)N3CCC(NC(=N)NC(=O)c4nc(Cl)c(N)nc4N)CC3)cc2)CC1 [Example 4, N,N′-(1,1′-(1,4-phenylene)bis(oxomethylene)bis(piperidine-4,1-diyl))bis(azanediyl)bis(iminomethylene)bis(3,5-diamino-6-chloropyrazine-2-carboxamide)hydrochloride]"
3,6 nM,"N=C(NC(=O)c1nc(Cl)c(N)nc1N)NC1CCN(c2ncnc(N3CCC(NC(=N)NC(=O)c4nc(Cl)c(N)nc4N)CC3)n2)CC1 [Example 7, N,N′-(1,1′-(1,3,5-triazine-2,4-diyl)bis(piperidine-4,1-diyl))bis(azanediyl)bis(iminomethylene)bis(3,5-diamino-6-chloropyrazine-2-carboxamide)hydrochloride]"
4,1 nM,"CCCCN(CCCC)CCCNc1nc(N2CCC(NC(=N)NC(=O)c3nc(Cl)c(N)nc3N)CC2)nc(N2CCC(NC(=N)NC(=O)c3nc(Cl)c(N)nc3N)CC2)n1 [Example 13, N,N′-(1,1′-(6-(3-(dibutylamino)propylamino)-1,3,5-triazine-2,4-diyl)bis(piperidine-4,1-diyl))bis(azanediyl)bis(iminomethylene)bis(3,5-diamino-6-chloropyrazine-2-carboxamide) trifluoroacetate]"
5,1.6 nM,"N/C(=N\C(=O)c1nc(Cl)c(N)nc1N)NC1CCN(C(=O)NCCCCNC(=O)N2CCC(N/C(N)=N/C(=O)c3nc(Cl)c(N)nc3N)CC2)CC1 [Example 23, N,N′-(1,1′-(Butane-1,4-diylbis(azanediyl))bis(oxomethylene)bis(piperidine-4,1-diyl))bis(azanediyl)bis(aminomethan-1-yl-1-ylidene)bis(3,5-diamino-6-chloropyrazine-2-carboxamide) hydrobromide]"
